In patent publication US9884821B2, “N1-cyclic amine-N5-substituted biguanide derivatives, methods of preparing the same and pharmaceutical composition comprising the same” (IMMUNOMET THERAPEUTICS INC., priority 2013, dated 2018):

Tests used:
AMPK = AMPK activation effect (AMPK [pT172] ELISA) in MCF7 cells; format: cell-based, human; settings: 24 hours; for AMPK activation effect (%) 5 μM / AMPK activation effect (%) 10 μM / AMPK activation effect (%) 50 μM: AMPKα Thr172 phosphorylation relative to untreated cells; for AC150: concentration at which AMPK activation reached 150%
Procedure: ELISA kit (Invitrogen, Catalog No. KH00651).
MCF7 cells were cultured in a DMEM medium supplemented with 10% fatal bovine serum (commercially available from Gibco Life Technologies (US)). Thereafter, the cultured MCF7 cells were put into a 6-well plate with approximately 5×10^5 cells per well, and cultured in an incubator supplied with 5% CO2. Culture media were treated with the derivatives synthesized in the Examples at concentrations of 5, 10 and 50 uM, and then cultured for 24 hours. […] Subsequently, the cells were lysed according to a method presented in the operation manual of the AMPK [pT172] ELISA kit, and 20 μg of a cell lysate was then yielded through protein assay. Thereafter, the AMPK activation effect was obtained by determining a degree of phosphorylation of a 172nd threonine residue (Thr172) of the AMPKα from the cell lysate according to the method presented in the operation manual of the AMPK [pT172] ELISA kit.

HCT116 cells = assay: Effect of inhibiting cancer cell proliferation (MTT) in HCT116 cells; format: cell-based, human; settings: Homo sapiens, HCT-116, 48 h; for inhibition at 25 µM: read-out: Cell growth inhibition (%) at 25 μM; for inhibition at 100 µM: read-out: Cell growth inhibition (%) at 100 μM
Source text: HCT116 cells derived from human colorectal cancer were used, and an effect of inhibiting cancer cell proliferation of the biguanide derivative was confirmed by measuring a concentration value (cell growth inhibition concentration, GIC50) at which cell growth was inhibited by 50% using a 3-(4,5-dimethylthiazol-2-yl)-2,5-diphenyltetrazolium bromide (MTT) reagent.
First, HCT116 cells (purchased from the KCLB) were put on a 96-well plate and cultured in a DMEM medium supplemented with 10% fatal bovine serum (commercially available from Gibco Life Technologies (US)) for 16 hours so that approximately 5,000 cells were counted in each well. Subsequently, to obtain the GIC50 value of each compound, the culture media were treated with 100 μM, 25 μM, 6.25 μM, 1.56 μM or 0.39 μM of the compound, and then cultured for 48 hours. In order to determine whether the cells survived after treatment with the compounds, MTT (commercially available from AMRESCO (US)) was added to the culture media which were then cultured for another 3 hours. Formed formazane crystals were dissolved using dimethyl sulfoxide (DMSO) and the absorbance of the resulting solution was measured at 560 nm. After the 48-hour culture, a ratio of a living cell count on a well plate treated with the compounds synthesized in the Examples to a cell count cultured on a well plate not treated with the compound was indicated as cell viability (%) according to the concentration of each treated compound. The cell viability (%) was used to plot a cell viability curve graph and calculate a concentration (GIC50) value of the compound at which the growth was inhibited by 50%, thereby confirming the inhibition effect of cancer cell proliferation.

CC1CCCN(C(=N)NC(=N)Nc2cccc(C(F)(F)F)c2)C1.Cl (stereo not drawn) [Example 88, N1-(3-methyl)piperidine-N5-(3-trifluoromethyl)phenyl biguanide hydrochloride]
AMPK activation effect (%) 5 μM (AMPK): 327%
AMPK activation effect (%) 10 μM (AMPK): 399%
AC150 (AMPK): 0.7 µM
GI50 (HCT116 cells): 6.6 µM
inhibition at 25 µM (HCT116 cells): 100%

Cl.N=C(NCc1ccc(C(F)(F)F)cc1)NC(=N)N1CC=CCC1 [Example 56, N1-1,2,3,6-tetrahydropyridine-N5-(4-trifluoromethyl)benzyl biguanide hydrochloride]
AMPK activation effect (%) 10 μM (AMPK): 389%
AMPK activation effect (%) 50 μM (AMPK): 671%
AC150 (AMPK): 2.1 µM
GI50 (HCT116 cells): 26.9 µM
inhibition at 100 µM (HCT116 cells): 97.7%

Cl.N=C(NC(=N)N1CC=CC1)Nc1ccc(Br)cc1 [Example 9, N1-1,2-dihydropyrrole-N5-(4-bromo)phenyl biguanide hydrochloride]
AMPK activation effect (%) 10 μM (AMPK): 169%
AMPK activation effect (%) 50 μM (AMPK): 371%
AC150 (AMPK): 9.0 µM
GI50 (HCT116 cells): 28.8 µM
inhibition at 100 µM (HCT116 cells): 99.5%

Cl.N=C(NC(=N)N1CC=CC1)Nc1ccccc1 [Example 44, N1-1,2-dihydropyrrole-N5-phenyl biguanide hydrochloride]
AMPK activation effect (%) 10 μM (AMPK): 289%
AMPK activation effect (%) 50 μM (AMPK): 577%
AC150 (AMPK): 1.7 µM
GI50 (HCT116 cells): > 100 µM
inhibition at 100 µM (HCT116 cells): 27.8%

CC1=CCN(C(=N)NC(=N)NCc2ccc(Cl)c(C(F)(F)F)c2)C1.Cl [Example 27, N1-(3-methyl)-1,2-dihydropyrrole-N5-(4-chloro, 3-trifluoromethyl)benzyl biguanide hydrochloride]
AMPK activation effect (%) 10 μM (AMPK): 119%
AMPK activation effect (%) 50 μM (AMPK): 316%
AC150 (AMPK): 13.5 µM
GI50 (HCT116 cells): 33.5 µM
inhibition at 100 µM (HCT116 cells): 96.6%

COc1ccc(NC(=N)NC(=N)N2CC=CCC2)cc1.Cl [Example 40, N1-1,2,3,6-tetrahydropyridine-N5-(4-methoxyl)phenyl biguanide hydrochloride]
AMPK activation effect (%) 10 μM (AMPK): 122%
AMPK activation effect (%) 50 μM (AMPK): 163%
AC150 (AMPK): 37.8 µM
GI50 (HCT116 cells): > 100 µM
inhibition at 100 µM (HCT116 cells): 37.4%

CC1CCCN(C(=N)NC(=N)Nc2ccc(F)c(C(F)(F)F)c2)C1.Cl (stereo not drawn) [Example 71, N1-(3-methyl)piperidine-N5-(4-fluoro, 3-trifluoromethyl)phenyl biguanide hydrochloride]
AMPK activation effect (%) 5 μM (AMPK; hydrochloride): 259%
AMPK activation effect (%) 10 μM (AMPK; hydrochloride): 430%
AC150 (AMPK; hydrochloride): 1.6 µM
GI50 (HCT116 cells): 5.7 µM
inhibition at 25 µM (HCT116 cells): 100%

CC1=CCN(C(=N)NC(=N)NCc2ccc(C(F)(F)F)cc2)C1.Cl [Example 26, N1-(3-methyl)-1,2-dihydropyrrole-N5-(4-trifluoromethyl)benzyl biguanide hydrochloride]
AMPK activation effect (%) 10 μM (AMPK): 443%
AMPK activation effect (%) 50 μM (AMPK): 358%
AC150 (AMPK): 0.68 µM
GI50 (HCT116 cells): 8.2 µM
inhibition at 100 µM (HCT116 cells): 96.7%

CC1CCCC(C)N1C(=N)NC(=N)Nc1ccc(OC(F)(F)F)cc1.Cl (stereo not drawn) [Example 89, N1-(2,6-dimethyl)piperidine-N5-(4-trifluoromethoxy)phenyl biguanide hydrochloride]
AMPK activation effect (%) 5 μM (AMPK): 153%
AMPK activation effect (%) 10 μM (AMPK): 198%
AC150 (AMPK): 4.7 µM
GI50 (HCT116 cells): 6.2 µM
inhibition at 25 µM (HCT116 cells): 100%

CC1CCCCN1C(=N)NC(=N)Nc1ccc(C(F)(F)F)cc1.Cl (stereo not drawn) [Example 74, N1-(2-methyl)piperidine-N5-(4-trifluoromethyl)phenyl biguanide hydrochloride]
AMPK activation effect (%) 5 μM (AMPK): 199%
AMPK activation effect (%) 10 μM (AMPK): 410%
AC150 (AMPK): 2.0 µM
GI50 (HCT116 cells): 8.7 µM
inhibition at 25 µM (HCT116 cells): 100%

Cl.N=C(NCc1ccc(C(F)(F)F)cc1)NC(=N)N1CC=CC1 [Example 13, N1-1,2-dihydropyrrole-N5-(4-trifluoromethyl)benzyl biguanide hydrochloride]
AMPK activation effect (%) 10 μM (AMPK): 135%
AMPK activation effect (%) 50 μM (AMPK): 462%
AC150 (AMPK): 9.0 µM
GI50 (HCT116 cells): 77.1 µM
inhibition at 100 µM (HCT116 cells): 57.8%

COc1cc(NC(=N)NC(=N)N2CC=CCC2)cc(OC)c1.Cl [Example 38, N1-1,2,3,6-tetrahydropyridine-N5-(3,5-dimethoxy)phenyl biguanide hydrochloride]
AMPK activation effect (%) 10 μM (AMPK): 97%
AMPK activation effect (%) 50 μM (AMPK): 117%
AC150 (AMPK): >50 µM
GI50 (HCT116 cells): 108 µM
inhibition at 100 µM (HCT116 cells): 47.8%

COc1cccc(NC(=N)NC(=N)N2CC=CCC2)c1.Cl [Example 41, N1-1,2,3,6-tetrahydropyridine-N5-(3-methoxyl)phenyl biguanide hydrochloride]
AMPK activation effect (%) 10 μM (AMPK): 125%
AMPK activation effect (%) 50 μM (AMPK): 201%
AC150 (AMPK): 22.4 µM
GI50 (HCT116 cells): 88.2 µM
inhibition at 100 µM (HCT116 cells): 55.9%

CCCCCCNC(=N)NC(=N)N1CC=CCC1.Cl [Example 53, N1-1,2,3,6-tetrahydropyridine-N5-hexyl biguanide hydrochloride]
AMPK activation effect (%) 10 μM (AMPK): 311%
AMPK activation effect (%) 50 μM (AMPK): 589%
AC150 (AMPK): 2.3 µM
GI50 (HCT116 cells): 43.7 µM
inhibition at 100 µM (HCT116 cells): 97.9%

CC1CCCC(C)N1C(=N)NC(=N)Nc1ccc(Cl)c(C(F)(F)F)c1.Cl (stereo not drawn) [Example 94, N1-(2,6-dimethyl)piperidine-N5-(4-chloro, 3-trifluoromethyl)phenyl biguanide hydrochloride]
AMPK activation effect (%) 5 μM (AMPK): 328%
AMPK activation effect (%) 10 μM (AMPK): 643%
AC150 (AMPK): 1.1 µM
GI50 (HCT116 cells): 2.8 µM
inhibition at 25 µM (HCT116 cells): 100%

CCCCNC(=N)NC(=N)N1CC=CCC1.Cl [Example 59, N1-1,2,3,6-tetrahydropyridine-N5-butyl biguanide hydrochloride]
AMPK activation effect (%) 10 μM (AMPK): 104%
AMPK activation effect (%) 50 μM (AMPK): 283%
AC150 (AMPK): 16.6 µM
GI50 (HCT116 cells): 141 µM
inhibition at 100 µM (HCT116 cells): 44.5%

Cl.N=C(NCc1ccc(OC(F)(F)F)cc1)NC(=N)N1CC=CCC1 [Example 54, N1-1,2,3,6-tetrahydropyridine-N5-(4-trifluoromethoxy)benzyl biguanide hydrochloride]
AMPK activation effect (%) 10 μM (AMPK): 545%
AMPK activation effect (%) 50 μM (AMPK): 650%
AC150 (AMPK): 0.87 µM
GI50 (HCT116 cells): 14.6 µM
inhibition at 100 µM (HCT116 cells): 98.1%

CC1CCCCN1C(=N)NC(=N)Nc1cccc(OC(F)(F)F)c1.Cl (stereo not drawn) [Example 73, N1-(2-methyl)piperidine-N5-(3-trifluoromethoxy)phenyl biguanide hydrochloride]
AMPK activation effect (%) 5 μM (AMPK): 215%
AMPK activation effect (%) 10 μM (AMPK): 384%
AC150 (AMPK): 2.0 µM
GI50 (HCT116 cells): 6.7 µM
inhibition at 25 µM (HCT116 cells): 100%

Cl.N=C(NC(=N)N1CC=CC1)Nc1ccc(OC(F)(F)F)c(Cl)c1 [Example 10, N1-1,2-dihydropyrrole-N5-(3-chloro,4-trifluoromethoxy)phenyl biguanide hydrochloride]
AMPK activation effect (%) 10 μM (AMPK): 408%
AC150 (AMPK): 1.4 µM
GI50 (HCT116 cells): 8.3 µM
inhibition at 100 µM (HCT116 cells): 97.9%

CC1CCCN(C(=N)NC(=N)NCc2ccc(Cl)cc2)C1.Cl (stereo not drawn) [Example 66, N1-(3-methyl)piperidine-N5-(4-chloro)benzyl biguanide hydrochloride]
AMPK activation effect (%) 5 μM (AMPK): 101%
AMPK activation effect (%) 10 μM (AMPK): 204%
AC150 (AMPK): 6.2 µM
GI50 (HCT116 cells): 18.5 µM
inhibition at 25 µM (HCT116 cells): 67.4%

CC1CCCN(C(=N)NC(=N)Nc2ccc(Cl)c(C(F)(F)F)c2)C1.Cl (stereo not drawn) [Example 69, N1-(3-methyl)piperidine-N5-(4-chloro, 3-trifluoromethyl)phenyl biguanide hydrochloride]
AMPK activation effect (%) 5 μM (AMPK): 307%
AMPK activation effect (%) 10 μM (AMPK): 650%
AC150 (AMPK): 1.2 µM
GI50 (HCT116 cells): 1.9 µM
inhibition at 25 µM (HCT116 cells): 100%

Cl.N=C(NC(=N)N1CC=CC1)Nc1ccc(C(F)(F)F)c(F)c1 [Example 47, N1-1,2-dihydropyrrole-N5-(3-fluoro, 4-trifluoromethyl)phenyl biguanide hydrochloride]
AMPK activation effect (%) 10 μM (AMPK): 758%
AC150 (AMPK): 1.0 µM
GI50 (HCT116 cells): 10.8 µM
inhibition at 100 µM (HCT116 cells): 100%
